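Cultured in 96-well plates, cells were exposed to test compound for 48 hours across five concentrations. Abbreviation: GI50, concentration required for 50% inhibition of growth. TGI: concentration producing complete growth inhibition.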
What was measured:
Experiment in all cases: DTP human tumour cell line panel, 48 h
[1] = tested on: T-47D breast
[2] = tested on: MCF7 breast
[3] = tested on: SK-MEL-5 melanoma
[4] = tested on: K-562 leukemia
[5] = tested on: UO-31 renal
[6] = tested on: IGROV1 ovarian
[7] = tested on: SNB-75 CNS
[8] = tested on: ACHN renal
[9] = tested on: 786-0 renal
[10] = tested on: HCT-116 colon
[11] = tested on: M14 melanoma
[12] = tested on: MALME-3M melanoma
[13] = tested on: OVCAR-8 ovarian
[14] = tested on: RPMI-8226 leukemia
[15] = tested on: TK-10 renal
[16] = tested on: A498 renal
[17] = tested on: MDA-MB-231 breast
[18] = tested on: OVCAR-5 ovarian
[19] = tested on: SF-295 CNS
[20] = tested on: NCI-H460 lung
[21] = tested on: HS 578T breast
[22] = tested on: RXF 393 renal
[23] = tested on: SK-MEL-28 melanoma
[24] = tested on: UACC-62 melanoma
[25] = tested on: NCI-H23 lung
[26] = tested on: SW-620 colon
[27] = tested on: DU-145 prostate
[28] = tested on: SF-539 CNS

Oc1ccc(CSc2nnc(-c3cnccn3)n2-c2ccccc2)c2cccnc12
GI50 [1]: 1.13 µM
TGI [1]: > 100 µM
GI50 [2]: 0.334 µM
TGI [2]: > 100 µM
GI50 [3]: 0.638 µM
GI50 [4]: 0.468 µM
TGI [4]: > 100 µM
GI50 [5]: 0.458 µM
TGI [5]: 15.3 µM
GI50 [6]: 0.923 µM
TGI [6]: > 100 µM
GI50 [7]: 0.707 µM
TGI [7]: > 62.3 µM
GI50 [8]: 0.641 µM
TGI [8]: > 40.9 µM
GI50 [9]: 3.7 µM
TGI [9]: 34 µM
GI50 [10]: 0.37 µM
TGI [10]: > 100 µM
GI50 [11]: 0.815 µM
GI50 [12]: 2.02 µM
TGI [12]: > 100 µM
GI50 [13]: 0.519 µM
TGI [13]: > 100 µM
GI50 [14]: 0.46 µM
TGI [14]: > 100 µM
GI50 [15]: 3.23 µM
TGI [15]: > 100 µM
GI50 [16]: 2.6 µM
TGI [16]: 10.1 µM
GI50 [17]: 1.28 µM
TGI [17]: > 86.5 µM
GI50 [18]: 3.83 µM
TGI [18]: > 100 µM
GI50 [19]: 1 µM
TGI [19]: > 59.6 µM
GI50 [20]: 0.412 µM
TGI [20]: 16.4 µM
GI50 [21]: 0.522 µM
TGI [21]: > 100 µM
GI50 [22]: 2.59 µM
TGI [22]: > 58.2 µM
GI50 [23]: 2.07 µM
TGI [23]: > 100 µM
GI50 [24]: 1.18 µM
TGI [24]: 6.73 µM
GI50 [25]: 0.496 µM
TGI [25]: > 61 µM
GI50 [26]: 0.624 µM
TGI [26]: > 100 µM
GI50 [27]: 0.669 µM
TGI [27]: > 100 µM
GI50 [28]: 0.919 µM
TGI [28]: > 37.1 µM

— PubChem BioAssay (NCI)
